Measurements published in ChEMBL document CHEMBL1142986, “Synthesis of valiolamine and some precursors for bioactive carbaglycosylamines from (-)-vibo-quercitol produced by biogenesis of myo-inositol” (J Nat Prod, 2007).

Molecular target: Alpha-glucosidase MAL12 (Saccharomyces cerevisiae S288c, UniProt P53341)
Test: Inhibition of baker's yeast alpha-glucosidase

Alpha-glucosidase MAL12, sequence (P53341 whole entry): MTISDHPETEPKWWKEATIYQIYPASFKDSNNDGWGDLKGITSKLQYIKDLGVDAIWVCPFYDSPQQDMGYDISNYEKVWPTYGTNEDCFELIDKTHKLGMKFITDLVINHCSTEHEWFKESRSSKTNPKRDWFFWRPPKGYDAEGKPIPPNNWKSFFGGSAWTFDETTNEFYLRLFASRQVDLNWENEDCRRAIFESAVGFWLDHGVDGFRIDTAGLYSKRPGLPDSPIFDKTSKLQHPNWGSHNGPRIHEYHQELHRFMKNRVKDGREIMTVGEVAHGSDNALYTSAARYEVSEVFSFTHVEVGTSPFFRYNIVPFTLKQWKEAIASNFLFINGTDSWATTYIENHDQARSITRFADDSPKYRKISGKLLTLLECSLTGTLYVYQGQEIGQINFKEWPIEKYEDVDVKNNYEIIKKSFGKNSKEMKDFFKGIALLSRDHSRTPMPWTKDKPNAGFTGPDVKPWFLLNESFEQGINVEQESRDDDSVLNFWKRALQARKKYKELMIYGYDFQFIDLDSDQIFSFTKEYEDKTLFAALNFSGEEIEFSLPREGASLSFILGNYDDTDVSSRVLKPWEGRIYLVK

IC50: 36 µM
Compound: N[C@@H]1C[C@](O)(CO)[C@@H](O)[C@H](O)[C@H]1O
